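At the GI50, growth is halved. The concentration for full growth arrest is given as TGI.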
Key:
Assay in all cases: growth of human tumour cells (NCI), 384-well format
MALME-3M melanoma = test system: MALME-3M melanoma
SF-539 CNS = test system: SF-539 CNS
RXF 393 renal = test system: RXF 393 renal
RPMI-8226 leukemia = test system: RPMI-8226 leukemia
OVCAR-4 ovarian = test system: OVCAR-4 ovarian
NCI-H522 lung = test system: NCI-H522 lung
BT-549 breast = test system: BT-549 breast
K-562 leukemia = test system: K-562 leukemia
NCI-H460 NSCLC = test system: NCI-H460 NSCLC
HOP-92 NSCLC = test system: HOP-92 NSCLC
OVCAR-3 ovarian = test system: OVCAR-3 ovarian
SN12C renal = test system: SN12C renal
LOX IMVI melanoma = test system: LOX IMVI melanoma
KM12 colon = test system: KM12 colon
NCI-H322M lung = test system: NCI-H322M lung
SW-620 colon = test system: SW-620 colon
MDA-MB-468 breast = test system: MDA-MB-468 breast
HCC-2998 colon = test system: HCC-2998 colon
NCI-H226 lung = test system: NCI-H226 lung
COLO 205 colon = test system: COLO 205 colon
SK-MEL-28 melanoma = test system: SK-MEL-28 melanoma
IGROV1 ovarian = test system: IGROV1 ovarian
UACC-62 melanoma = test system: UACC-62 melanoma
NCI-H23 lung = test system: NCI-H23 lung
MDA-MB-231 breast = test system: MDA-MB-231 breast
U251 glioblastoma = test system: U251 glioblastoma
PC-3 prostate = test system: PC-3 prostate
SK-OV-3 ovarian = test system: SK-OV-3 ovarian
HOP-62 NSCLC = test system: HOP-62 NSCLC
UO-31 renal = test system: UO-31 renal
HT29 colon = test system: HT29 colon
SF-295 CNS = test system: SF-295 CNS
HCT-15 colon = test system: HCT-15 colon
CCRF-CEM leukemia = test system: CCRF-CEM leukemia
HS 578T breast = test system: HS 578T breast
SF-268 CNS = test system: SF-268 CNS
SNB-19 CNS = test system: SNB-19 CNS
OVCAR-5 ovarian = test system: OVCAR-5 ovarian
UACC-257 melanoma = test system: UACC-257 melanoma
EKVX NSCLC = test system: EKVX NSCLC
CAKI-1 renal = test system: CAKI-1 renal
786-0 renal = test system: 786-0 renal
MOLT-4 leukemia = test system: MOLT-4 leukemia
SR leukemia = test system: SR leukemia
T-47D breast = test system: T-47D breast
A549 NSCLC = test system: A549 NSCLC
M14 melanoma = test system: M14 melanoma
MDA-MB-435 melanoma = test system: MDA-MB-435 melanoma
SK-MEL-5 melanoma = test system: SK-MEL-5 melanoma
SNB-75 CNS = test system: SNB-75 CNS
HL-60(TB) leukemia = test system: HL-60(TB) leukemia
NCI/ADR-RES ovarian = test system: NCI/ADR-RES ovarian

## CN1C/C=C/CCOc2cccc(c2)-c2ccnc(n2)Nc2cccc(c2)C1
MALME-3M melanoma
  GI50: 33.5 nM
  TGI: 88.3 nM
SF-539 CNS
  GI50: 25.2 nM
  TGI: 62.6 nM
RXF 393 renal
  GI50: 19.2 nM
  TGI: 35.4 nM
RPMI-8226 leukemia
  GI50: 23.7 nM
  TGI: 50.6 nM
OVCAR-4 ovarian
  TGI: 602 nM
NCI-H522 lung
  GI50: 59.8 nM
  TGI: 227 nM
BT-549 breast
  GI50: 23.5 nM
  TGI: 50.2 nM
K-562 leukemia
  GI50: 71 nM
  TGI: 307 nM
NCI-H460 NSCLC
  GI50: 19.9 nM
  TGI: 41.9 nM
HOP-92 NSCLC
  GI50: 44.3 nM
  TGI: 3560 nM
OVCAR-3 ovarian
  GI50: 22.9 nM
  TGI: 60.3 nM
SN12C renal
  GI50: 27.6 nM
  TGI: 90.3 nM
LOX IMVI melanoma
  GI50: 18.5 nM
  TGI: 35.7 nM
KM12 colon
  GI50: 26 nM
  TGI: 74.7 nM
NCI-H322M lung
  GI50: 30.1 nM
  TGI: 90.6 nM
SW-620 colon
  GI50: 38.1 nM
  TGI: 279 nM
MDA-MB-468 breast
  GI50: 42.7 nM
  TGI: 147 nM
HCC-2998 colon
  GI50: 32.5 nM
  TGI: 219 nM
NCI-H226 lung
  GI50: 26.9 nM
  TGI: 86 nM
COLO 205 colon
  GI50: 24.7 nM
  TGI: 57.8 nM
SK-MEL-28 melanoma
  GI50: 25.7 nM
  TGI: 86.5 nM
IGROV1 ovarian
  TGI: 128 nM
UACC-62 melanoma
  GI50: 18.6 nM
  TGI: 45.4 nM
NCI-H23 lung
  TGI: 106 nM
MDA-MB-231 breast
  GI50: 51.5 nM
  TGI: 296 nM
U251 glioblastoma
  GI50: 34 nM
  TGI: 520 nM
PC-3 prostate
  GI50: 31.1 nM
  TGI: 94.9 nM
SK-OV-3 ovarian
  GI50: 65.3 nM
  TGI: 1140 nM
HOP-62 NSCLC
  GI50: 21.6 nM
  TGI: 49.4 nM
UO-31 renal
  GI50: 20.6 nM
  TGI: 40.7 nM
HT29 colon
  GI50: 36.5 nM
  TGI: 203 nM
SF-295 CNS
  GI50: 34 nM
  TGI: 504 nM
HCT-15 colon
  GI50: 30.1 nM
  TGI: 119 nM
CCRF-CEM leukemia
  GI50: 18.7 nM
  TGI: 35.5 nM
HS 578T breast
  GI50: 18.7 nM
  TGI: 43.3 nM
SF-268 CNS
  GI50: 22.9 nM
  TGI: 67.8 nM
SNB-19 CNS
  GI50: 41.1 nM
  TGI: 1600 nM
OVCAR-5 ovarian
  GI50: 29.4 nM
  TGI: 7380 nM
UACC-257 melanoma
  GI50: 58.2 nM
  TGI: 208 nM
EKVX NSCLC
  GI50: 50.2 nM
  TGI: 192 nM
CAKI-1 renal
  GI50: 30.1 nM
  TGI: 1140 nM
786-0 renal
  GI50: 37 nM
  TGI: 224 nM
MOLT-4 leukemia
  GI50: 19.8 nM
  TGI: 37.2 nM
SR leukemia
  TGI: 14.9 nM
T-47D breast
  GI50: 41.6 nM
  TGI: 1200 nM
A549 NSCLC
  GI50: 35.2 nM
  TGI: 1090 nM
M14 melanoma
  GI50: 37.7 nM
  TGI: 118 nM
MDA-MB-435 melanoma
  GI50: 29.2 nM
  TGI: 88.9 nM
SK-MEL-5 melanoma
  GI50: 22 nM
  TGI: 53.6 nM
SNB-75 CNS
  GI50: 26 nM
  TGI: 65.9 nM
HL-60(TB) leukemia
  GI50: 16 nM
  TGI: 29.8 nM
NCI/ADR-RES ovarian
  GI50: 34.2 nM
  TGI: 124 nM

Reference: PubChem BioAssay (NCI)
